Measured values from PMC9167803 (Acta Pharmaceutica Sinica. B, 2022).

Biological target: SARS-CoV-2 RBD (Severe acute respiratory syndrome coronavirus 2, UniProt P0DTC2)
Assay: biochemical
Type: binding

O=c1c(O)c(-c2ccc(O)c(O)c2)oc2cc(O)cc(O)c12 [compound 4, quercetin]
Kd: 75.6 µM
